Tests used:
[1] = molecular target: T1, TLR7 (Mus musculus, UniProt P58681); experiment: Cytokine induction in BMDM from wild type and TLR7 deficient mice; type: cell-based; set-up: endogenous in cells; host or cells: primary BMDM from C57BL/6 mice; conditions: wild type BMDM
T1 sequence (P58681 27-1050): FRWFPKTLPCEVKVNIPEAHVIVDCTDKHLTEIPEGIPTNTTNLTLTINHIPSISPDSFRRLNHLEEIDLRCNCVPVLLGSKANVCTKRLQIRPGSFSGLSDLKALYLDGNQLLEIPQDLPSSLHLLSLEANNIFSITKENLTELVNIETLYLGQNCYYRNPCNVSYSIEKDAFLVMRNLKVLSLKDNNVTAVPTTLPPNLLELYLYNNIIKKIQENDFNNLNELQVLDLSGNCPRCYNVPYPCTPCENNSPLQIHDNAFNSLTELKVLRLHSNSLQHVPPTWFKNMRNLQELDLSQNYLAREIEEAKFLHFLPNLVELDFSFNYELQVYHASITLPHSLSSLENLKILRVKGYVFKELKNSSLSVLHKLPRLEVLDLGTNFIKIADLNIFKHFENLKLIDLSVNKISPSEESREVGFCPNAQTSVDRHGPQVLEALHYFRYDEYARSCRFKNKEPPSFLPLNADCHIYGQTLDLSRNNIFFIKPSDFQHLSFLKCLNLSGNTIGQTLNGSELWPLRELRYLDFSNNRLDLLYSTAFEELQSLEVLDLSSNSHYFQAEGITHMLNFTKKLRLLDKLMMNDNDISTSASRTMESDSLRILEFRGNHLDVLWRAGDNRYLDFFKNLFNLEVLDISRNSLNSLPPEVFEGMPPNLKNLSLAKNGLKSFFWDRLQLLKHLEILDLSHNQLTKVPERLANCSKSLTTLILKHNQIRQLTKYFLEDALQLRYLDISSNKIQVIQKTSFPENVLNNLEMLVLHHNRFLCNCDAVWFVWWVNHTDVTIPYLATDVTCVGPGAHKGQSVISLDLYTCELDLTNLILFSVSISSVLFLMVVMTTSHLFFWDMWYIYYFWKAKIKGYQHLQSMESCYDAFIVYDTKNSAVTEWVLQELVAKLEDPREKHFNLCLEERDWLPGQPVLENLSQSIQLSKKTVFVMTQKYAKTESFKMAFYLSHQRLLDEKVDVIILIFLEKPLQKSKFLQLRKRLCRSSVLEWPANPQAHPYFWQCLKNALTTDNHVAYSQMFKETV
Protocol: In vitro measurements of cytokine induction were performed using the mouse leukemic monocyte macrophage cell line, RAW264.7. […] BMDM were prepared from C57BL/6 and TLR7 deficient mice as described in Wu, C. C et al., (2007) “Immunotherapeutic activity of a conjugate of a Toll-like receptor 7 ligand”, Proc Natl Acad Sci USA 104, 3990-5.
In general, RAW264.7 cells or BMDM were incubated with various concentrations of conjugates for 18 hours at 37° C., 5% CO2 and culture supernatants were collected. The levels of cytokines (IL-6, IL-12 or TNF-α in the supernatants were determined by ELISA (BD Biosciences Pharmingen, La Jolla, Calif.) (Cho, H. J et al., “Immunostimulatory DNA-based vaccines induce cytotoxic lymphocyte activity by a T-helper cell-independent mechanism” [see comments], Nat Biotechnol 18, 509-14 (2000)), and the results presented in FIG. 2A-D. Data are mean±SEM of triplicates and are representative of three independent experiments. Minimum detection levels of these cytokines were 15 pg/mL.

[2] = molecular target: T2, TLR7 (Homo sapiens, UniProt Q9NYK1); experiment: Cytokine induction in human PBMC, LUMINEX bead assay; type: cell-based; conditions: 18 hours
T2 construct: endogenous in cells; host or cells: human PBMC from buffy coats (The San Diego Blood Bank)
T2 sequence (Q9NYK1 27-1049): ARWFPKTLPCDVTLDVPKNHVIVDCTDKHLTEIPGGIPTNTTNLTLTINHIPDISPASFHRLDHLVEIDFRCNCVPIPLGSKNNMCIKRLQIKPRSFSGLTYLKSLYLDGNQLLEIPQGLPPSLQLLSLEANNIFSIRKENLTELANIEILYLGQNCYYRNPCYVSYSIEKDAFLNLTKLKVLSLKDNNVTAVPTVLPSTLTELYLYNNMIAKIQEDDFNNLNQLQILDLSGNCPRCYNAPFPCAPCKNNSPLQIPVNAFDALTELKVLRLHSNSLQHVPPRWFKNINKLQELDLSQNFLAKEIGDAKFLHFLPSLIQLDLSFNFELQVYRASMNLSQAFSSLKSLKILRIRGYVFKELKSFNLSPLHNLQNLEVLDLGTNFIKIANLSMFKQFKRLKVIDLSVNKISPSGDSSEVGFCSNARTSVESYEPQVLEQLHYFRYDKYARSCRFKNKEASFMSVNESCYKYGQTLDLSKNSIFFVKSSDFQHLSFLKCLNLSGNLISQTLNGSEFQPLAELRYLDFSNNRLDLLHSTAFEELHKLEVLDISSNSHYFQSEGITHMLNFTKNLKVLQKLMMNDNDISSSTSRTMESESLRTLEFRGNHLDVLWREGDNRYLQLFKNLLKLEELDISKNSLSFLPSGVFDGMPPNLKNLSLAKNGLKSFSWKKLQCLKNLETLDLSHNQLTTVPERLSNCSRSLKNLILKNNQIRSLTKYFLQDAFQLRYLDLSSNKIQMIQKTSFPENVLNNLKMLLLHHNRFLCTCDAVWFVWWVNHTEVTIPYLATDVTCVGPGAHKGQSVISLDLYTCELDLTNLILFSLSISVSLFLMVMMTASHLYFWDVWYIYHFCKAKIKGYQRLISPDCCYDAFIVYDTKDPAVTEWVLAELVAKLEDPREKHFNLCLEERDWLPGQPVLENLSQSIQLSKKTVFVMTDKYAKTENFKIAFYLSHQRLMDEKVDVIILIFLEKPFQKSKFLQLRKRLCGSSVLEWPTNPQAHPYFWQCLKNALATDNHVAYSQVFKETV
Protocol: Human blood peripheral mononuclear cells (PBMC) were isolated from human buffy coats, purchased from The San Diego Blood Bank (San Diego, Calif.), as described in Hayashi, T et al., “Enhancement of innate immunity against Mycobacterium avium infection by immunostimulatory DNA is mediated by indoleamine 2,3-dioxygenase”, Infect Immun 69:6156-64, (2001). PBMC (1×10^6/mL) were incubated with various concentrations of TLR7 conjugates for 18 hours at 37° C., 5% CO2 and culture supernatants were collected. The levels of cytokines (IL-6, TNF-α, or IFNα1) in the supernatants were determined by LUMINEX bead assays (Invitrogen, Carlsbad, Calif.), and the results presented in FIG. 3A-B. Data are mean±SEM of triplicates and are representative of three independent experiments. The minimum detection levels of IL-6, TNF-α, and IFNα1 were 6 pg/mL, 10 pg/mL and 15 pg/mL, respectively.
To further investigate the immunological activities in human cells, human PBMC from three donors were treated with TLR7 conjugates and the levels of IL-6 and IFNa1 were determined by LUMINEX assay (FIG. 3A-B).

| agonist activity (IL-12, IL-6) [1] | order of TLR7 conjugate potency [2] | Structure (SMILES) |
| --- | --- | --- |
| active | (4b)>(6)>(9)>/=SM>(8) | CCCCCCCC/C=C\CCCCCCCC(=O)OCC(COP(=O)(O)OCCNC(=O)c1ccc(Cn2c(=O)[nH]c3c(N)nc(OCCOC)nc32)cc1)OC(=O)CCCCCCC/C=C\CCCCCCCC (stereo not drawn) [Compound 6, 2-(4-((6-amino-2-(2-methoxyethoxy)-8-oxo-7H-purin-9(8H)-yl)methyl)benzamido)ethyl 2,3-bis(oleoyloxy)propyl phosphate] |
| active | (4b)>(6)>(9)>/=SM>(8) | COCCOc1nc(N)c2nc(O)n(Cc3ccc(C(=O)NCCOCCOCCOCCOCCOCCOCCOCCOCCOCCOCCn4cc(CCC(=O)O)nn4)cc3)c2n1 [Compound 8, 3-(1-(1-(4-((6-amino-8-hydroxy-2-(2-methoxyethoxy)-9H-purin-9-yl)methyl)phenyl)-1-oxo-5,8,11,14,17,20,23,26,29,32-decaoxa-2-azatetratriacontan-34-yl)-1H-1,2,3-triazol-4-yl)propanoic acid] |
| active | (4b)>(6)>(9)>/=SM>(8) | CCCCCCCC/C=C\CCCCCCCC(=O)OCC(COP(=O)(O)OCCNC(=O)CCc1cn(CCOCCOCCOCCOCCOCCOCCOCCOCCOCCOCCNC(=O)c2ccc(Cn3c(O)nc4c(N)nc(OCCOC)nc43)cc2)nn1)OC(=O)CCCCCCC/C=C\CCCCCCCC (stereo not drawn) [Compound 9, 2-(3-(1-(1-(4-((6-amino-8-hydroxy-2-(2-methoxyethoxy)-9H-purin-9-yl)methyl)phenyl)-1-oxo-5,8,11,14,17,20,23,26,29,32-decaoxa-2-azatetratriacontan-34-yl)-1H-1,2,3-triazole-4-yl)propanamido)ethyl 2,3-bis(oleoyloxy)propyl phosphate] |

— patent US8729088B2, “Toll-like receptor modulators and treatment of diseases” (The Regents of the University of California, priority 2009, dated 2014)
